Drawing on patent publication US5138069A (E. I. Du Pont de Nemours and Company, priority 1988, dated 1992), this text covers IC50 and minimal effective dose for 33 compounds.

Like-named read-outs stand apart in the source and are kept apart here.

One test deals with AII receptor. Description: Angiotensin II receptor binding (displacement of 3H-AII). To be noted: read-out: Angiotensin II Receptor Binding IC50, rat adrenal cortical microsomes, 2 nM 3H-AII, 1 hour, room temperature. Here is the method:
The assay was carried out according to the method described by [Glossmann et al., J. Biol. Chem., 249, 825 (1974)], but with some modifications. The reaction mixture contained rat adrenal cortical microsomes (source of AII receptor) in Tris buffer and 2 nM of ^3 H-AII with or without potential AII antagonist. This mixture was incubated for 1 hour at room temperature and the reaction was subsequently terminated by rapid filtration and rinsing through glass micro-fibre filter. Receptor-bound ^3 H-AII trapped in filter was quantitated by scintillation counting.
(§1) Compounds listed in Table 26 were tested in the same manner as described for Table 25, except that in the test for antihypertensive effects in renal hypertensive rats, the compounds were administered orally at 30 mg/kg and intravenously at 3 mg/kg.
For orientation: Displacement assays read how much labelled ligand stays bound in the presence of the test substance.

A further test deals with Renal Hypertensive Rats. Put plainly: Antihypertensive effects in renal hypertensive rats. It is filed as in vivo. The note with it: Rattus norvegicus; for minimal effective dose at 10 mg/kg / minimal effective dose at 100 mg/kg: Table 25; for minimal effective dose at 10 mg/kg / minimal effective dose at 3 mg/kg: intravenous; for minimal effective dose at 10 mg/kg: 10 mg/kg or less; for minimal effective dose at 100 mg/kg / minimal effective dose at 30 mg/kg: oral; for minimal effective dose at 100 mg/kg: 100 mg/kg or less; for minimal effective dose at 3 mg/kg / minimal effective dose at 30 mg/kg: Table 26. As for the experimental part: This procedure increases blood pressure by increasing renin production with consequent elevation of AII levels. Compounds are administered orally at 100 mg/kg and/or intravenously via a cannula in the jugular vein at 10 mg/kg. Arterial blood pressure is continuously measured directly through a carotid artery cannula and recorded using a pressure transducer and a polygraph. Blood pressure levels after treatment are compared to pretreatment levels to determine the antihypertensive effects of the compounds (See Table 25).
as §1

Setting [1] is: Table 25, tested as sodium salt.

Turning to `CCCCc1nc(Br)c(CO)n1Cc1ccc(-c2ccccc2C(=O)O)cc1` [Example 100], the IC50 (as a rule, the midpoint of a concentration-inhibition curve) on AII receptor (Table 25) was found to be 90 nM. Also, in the test with Renal Hypertensive Rats, the minimal effective dose (commonly the smallest amount tested that counted as effective) at 10 mg/kg is less than 10 mg/kg and the minimal effective dose at 100 mg/kg was less than 100 mg/kg.

With `CCCCc1nc(Cl)c(CC(=O)OC)n1Cc1ccc(NC(=O)c2ccccc2NS(C)(=O)=O)cc1` [Example 51], the half-inhibitory concentration (IC50) at AII receptor (Table 25) stood at 2300 nM. In the test on Renal Hypertensive Rats, this compound gave a minimal effective dose at 10 mg/kg greater than 100 mg/kg and a minimal effective dose at 100 mg/kg greater than 100 mg/kg.

On to `CCCc1nc(C)c(C=O)n1Cc1ccc(-c2ccccc2C(=O)O)cc1` [Example 320, 1-[(2'-Carboxybiphenyl-4-yl)methyl]-4-methyl-2-propylimidazole-5-carboxaldehyde], for which the half-inhibitory concentration (IC50) on AII receptor (Table 26) is 880 nM. Moreover, in the test with Renal Hypertensive Rats, the minimal effective dose at 3 mg/kg was less than 3 mg/kg and the minimal effective dose at 30 mg/kg is less than 30 mg/kg.

Regarding `CCCCc1nc(Cl)c(COC)n1Cc1ccc(C(=O)Nc2ccccc2-c2nnn[nH]2)cc1` [Example 81], the IC50 on AII receptor (setting [1]) is 570 nM. For the same compound, in the test with Renal Hypertensive Rats (tested as sodium salt), the minimal effective dose at 10 mg/kg is greater than 100 mg/kg and the minimal effective dose at 100 mg/kg was greater than 100 mg/kg.

As for `CCCCc1nc(Br)c(C=O)n1Cc1ccc(-c2ccccc2-c2nnn[nH]2)cc1` [Example 140E], the concentration for half-maximal inhibition (IC50) at AII receptor (Table 26) is 33 nM. In the test on Renal Hypertensive Rats, this compound showed a minimal effective dose at 3 mg/kg of less than 3 mg/kg and a minimal effective dose at 30 mg/kg of less than 30 mg/kg.

As to `CCCCc1ncc(CO)n1Cc1ccc(-c2ccccc2C(=O)O)cc1` [Example 97], the IC50 on AII receptor (Table 25) came out at 270 nM. In the test with Renal Hypertensive Rats, the minimal effective dose at 10 mg/kg is less than 10 mg/kg and the minimal effective dose at 100 mg/kg was greater than 100 mg/kg.

In the case of `CCC=Cc1nc(C(F)(F)F)c(CO)n1Cc1ccc(-c2ccccc2C(=O)O)cc1` [Example 137], the IC50 on AII receptor (Table 25) was determined as 53 nM. Besides, in the test on Renal Hypertensive Rats, the minimal effective dose at 10 mg/kg was less than 10 mg/kg and the minimal effective dose at 100 mg/kg is less than 100 mg/kg.

For `CCCCc1nc(Cl)c(CNC(=O)OCC)n1Cc1ccc(-c2ccccc2C(=O)O)cc1` [Example 148, 2-Butyl-1-[(2'-carboxybiphenyl-4-yl)methyl]-4-chloro-5-(ethoxycarbonylaminomethyl)imidazole], at AII receptor (setting [1]), the IC50 amounted to 200 nM. In the test on Renal Hypertensive Rats (tested as sodium salt), the minimal effective dose at 10 mg/kg was less than 10 mg/kg and the minimal effective dose at 100 mg/kg was less than 100 mg/kg.

With `CCCCc1nc(Cl)c(C(=O)N2CCN(c3ccccc3OC)CC2)n1Cc1ccc(-c2ccccc2-c2nnn[nH]2)cc1` [Example 347, 2-n-Butyl-4-chloro-5-[4-(2-methoxyphenyl)piperazin-1-ylcarbonyl]-1-[(2'-(1H-tetrazol-5-yl)biphenyl-4-yl)methyl]imidazole], the IC50 at AII receptor (Table 26) was 200 nM. In the test on Renal Hypertensive Rats, this compound registered a minimal effective dose at 3 mg/kg of less than 3 mg/kg and a minimal effective dose at 30 mg/kg of less than 30 mg/kg.

Turning to `CCCCc1nc(Cl)c(CC(=O)OC)n1Cc1ccc(NC(=O)[C@@H]2CCCC[C@H]2NS(=O)(=O)C(F)(F)F)cc1` (relative stereo) [Example 74 (trans compound), Methyl 2-butyl-4-chloro-1-[4-(trans-2-(trifluoromethanesulfonamido)cyclohexanecarboxamido)benzyl]imidazole-5-acetate], the half-inhibitory concentration (IC50) at AII receptor (Table 25) is 3900 nM. In the test with Renal Hypertensive Rats, this compound registered a minimal effective dose at 10 mg/kg of less than 10 mg/kg and a minimal effective dose at 100 mg/kg greater than 100 mg/kg.

Consider `CCCc1nc(C(=O)OC)c(CO)n1Cc1ccc(-c2ccccc2-c2nnn[nH]2)cc1` [Example 334, 4-Carbomethoxy-5-hydroxymethyl-2-n-propyl-1-[(2'-(1H-tetrazol-5-yl)biphenyl)-methyl]imidazole], for which the half-maximal inhibitory concentration (IC50) on AII receptor (Table 26) is 15 nM. Besides, in the test on Renal Hypertensive Rats, the minimal effective dose at 3 mg/kg is less than 3 mg/kg and the minimal effective dose at 30 mg/kg is less than 30 mg/kg.

On to `CCCCc1nc(Cl)c(CC(=O)OC)n1Cc1ccc(NC(=O)c2cc(I)ccc2NS(=O)(=O)C(F)(F)F)cc1` [Example 35], for which, on AII receptor (setting [1]), the IC50 worked out at 3400 nM. In the test with Renal Hypertensive Rats (tested as sodium salt), the minimal effective dose at 10 mg/kg is less than 10 mg/kg and the minimal effective dose at 100 mg/kg is less than 100 mg/kg.

As for `CCCCc1nc(Cl)c(C(=O)OC)n1Cc1ccc(-c2ccccc2C(=O)O)cc1` [Example 126, methyl 1-[(2'-carboxybiphenyl-4-yl)methyl]-2-butyl-4-chloroimidazole-5-carboxylate], the IC50 on AII receptor (Table 25) stood at 340 nM. In the test with Renal Hypertensive Rats, this compound returned a minimal effective dose at 10 mg/kg of less than 10 mg/kg and a minimal effective dose at 100 mg/kg of less than 100 mg/kg.

With `CCCCc1nc(Cl)c(Cc2nnn[nH]2)n1Cc1ccc(-c2nnn[nH]2)cc1` [Example 27, 2-Butyl-4-chloro-5-[(1H-tetrazol-5-yl)methyl]-1-[4-(1H-tetrazol-5-yl)benzyl]imidazole], the 50% inhibitory concentration (IC50) at AII receptor (setting [1]) was 1200 nM. For the same compound, in the test on Renal Hypertensive Rats (tested as sodium salt), the minimal effective dose at 10 mg/kg was less than 10 mg/kg and the minimal effective dose at 100 mg/kg was less than 100 mg/kg.

As for `COc1ccc(Cc2nccn2Cc2ccc(NC(=O)c3ccccc3C(=O)O)cc2)cc1` [Example 70], the concentration for half-maximal inhibition (IC50) on AII receptor (Table 25) came to 2500 nM. Also, in the test on Renal Hypertensive Rats, the minimal effective dose at 10 mg/kg is less than 10 mg/kg and the minimal effective dose at 100 mg/kg is greater than 100 mg/kg.

For `CCCCCc1nccn1Cc1ccc(NC(=O)c2ccccc2C(=O)O)cc1` [Example 65], the half-maximal inhibitory concentration (IC50) on AII receptor (Table 25) is 240 nM. In the test on Renal Hypertensive Rats, this compound displayed a minimal effective dose at 10 mg/kg of less than 10 mg/kg and a minimal effective dose at 100 mg/kg greater than 100 mg/kg.

On to `O=C(Nc1ccc(Cn2ccnc2CC2CCCCC2)cc1)c1ccccc1NS(=O)(=O)C(F)(F)F` [Example 61], for which the IC50 at AII receptor (Table 25) amounted to 5000 nM.

In the case of `CCCCc1nc(Cl)c(CNS(=O)(=O)C(F)(F)F)n1Cc1ccc(C(=O)c2ccccc2C(=O)O)cc1` [Example 217, 2-Butyl-1-[4-(2-carboxybenzoyl)benzyl]-4-chloro-5-[(trifluoromethylsulfonamido)methyl]imidazole], the IC50 on AII receptor (setting [1]) worked out at 2700 nM.

For `CCCCc1nc(Cl)c(CC(C)C(=O)N[C@H](C)c2ccccc2)n1Cc1ccc(NC(=O)c2ccccc2C(=O)O)cc1` (single isomer, unassigned) [Example 239, d and l 3-[1-(4-(2-Carboxybenzamido)benzyl-2-butyl-4-chloroimidazol-5-yl]-2-methylpropanoic acid, d-(+)-α-methylbenzylamide], the IC50 at AII receptor (Table 25) worked out at 120 nM.

Regarding `CCCCc1nc(Cl)c(CC(=O)O)n1Cc1ccc(NC(=O)c2ccccc2C(=O)O)cc1` [Example 32, 2-Butyl-1-[4-(2-carboxybenzamido)-benzyl]-4-chloroimidazole-5-acetic acid], on AII receptor (setting [1]), the half-maximal inhibitory concentration (IC50) was determined as 430 nM.

`COCCc1nc(Cl)c(CO)n1Cc1ccc(NC(=O)c2ccccc2NS(=O)(=O)C(F)(F)F)cc1` [Example 56, 4-Chloro-5-hydroxymethyl-2-(2-methoxyethyl)-1-[4-((N-trifluoromethanesulfonyl)anthranilamido)benzyl]imidazole]: at AII receptor (Table 25), the IC50 worked out at 4400 nM.

`CCCCc1nc(Cl)c(CCCOC(C)=O)n1Cc1ccc(NC(=O)c2ccccc2C(=O)O)cc1` [Example 247]: the IC50 at AII receptor (Table 25) worked out at 110 nM.

Regarding `CCc1nc(Cl)c(CO)n1Cc1ccc(-c2ccccc2C(=O)O)cc1` [Example 107], the IC50 at AII receptor (Table 25) is 1700 nM.

Regarding `CCCCc1nc(Cl)c(CC(=O)OC)n1Cc1ccc(NC(=O)c2cccc(NS(=O)(=O)C(F)(F)F)c2)cc1` [Example 33], the half-inhibitory concentration (IC50) on AII receptor (Table 25) is 940 nM.

For `CCCCc1nc(Cl)c(CN2CCN(c3ccccc3OC)CC2)n1Cc1ccc(-c2ccccc2-c2nnn[nH]2)cc1` [Example 354, 2-n-Butyl-4-chloro-5-[(4-(2-methoxyphenyl)piperazin-1-yl)methyl]-1-[(2'-(1H-tetrazol-5-yl)biphenyl-4-yl)methyl]imidazole], the IC50 at AII receptor (Table 25) and at AII receptor (Table 26) was 350 nM in each case.

Turning to `O=C(O)c1ccccc1C(=O)Nc1ccc(Cn2ccnc2CC2CCCCC2)cc1` [Example 71], the IC50 at AII receptor (Table 25) was 2800 nM.

Turning to `CCCCc1nc(Cl)c(CN=[N+]=[N-])n1Cc1ccc(C(=O)c2ccccc2C(=O)O)cc1` [Example 206], the IC50 at AII receptor (setting [1]) turned out to be 1400 nM.

As to `CCCCc1nc(Cl)c(CC(=O)O)n1Cc1ccc(NC(=O)c2ccccc2NS(=O)(=O)C(F)(F)F)cc1` [Example 31, 2-Butyl-4-chloro-1-[4-((N-trifluoromethanesulfonyl)anthranilamido)benzyl]imidazole-5-acetic acid], the IC50 on AII receptor (Table 25) was 640 nM.

On to `CCCc1nc(Cl)c(CO)n1Cc1ccc(-c2ccccc2-c2nn[nH]n2)cc1` [Example 113], for which, at AII receptor (Table 25), the 50% inhibitory concentration (IC50) was determined as 20 nM.

Regarding `CCCCc1nc(Cl)c(/C=C/CO)n1Cc1ccc(NC(=O)c2ccccc2C(=O)O)cc1` [Example 241], the IC50 on AII receptor (Table 25) amounted to 170 nM.

For `CCCCc1nc(Cl)c(/C=C/C(=O)OCC)n1Cc1ccc(NC(=O)c2ccccc2C(=O)O)cc1` [Example 228, 3-[2-Butyl-4-chloro-1-(4-(2-carboxybenzamido)benzyl)imidazol-5-yl]-propenoic acid ethyl ester, E isomer], at AII receptor (Table 25), the IC50 worked out at 530 nM.

Take `CCc1nccn1Cc1ccc(NC(=O)c2ccccc2C(=O)O)cc1` [Example 62]: the IC50 at AII receptor (setting [1]) was 9200 nM.

Turning to `CCCCc1nc(C#N)c(C(N)=O)n1Cc1ccc(-c2ccccc2-c2nnn[nH]2)cc1` [Example 342, 2-n-Butyl-5-carboxamido-4-cyano-1-[(2'-(1H-tetrazol-5-yl)biphenyl-4-yl)methyl]imidazole], the IC50 at AII receptor (Table 26) is 37 nM.
